Here are results for twelve compounds from ChEMBL document CHEMBL1201862, “PubChem BioAssay data set” (2004).

Holding throughout (assay): NCI anticancer screen, dose series, 48 h
Test [1] concerns Malme-3M.
For test [2], the system named is LOX IMVI.
Test [3] has as its system K562.
Test [4] has as its system SK-MEL-5.
For test [5], the system named is SF-295.
Test [6] deals with A498.
Test [7] concerns DU-145.
Test [8] relates to OVCAR-3.
The test system of test [9] is MCF7.
Test [10] has as its system ACHN.
The test system of test [11] is HT-29.
Test [12] relates to UACC-257.
Test [13] deals with OVCAR-4.
Test [14] deals with SF-539.
For test [15], the system named is MDA-N.
Test [16] has as its system EKVX.
For test [17], the system named is PC-3.
For test [18], the system named is A549.
The subject of test [19] is SN12C.

The structures appear in SMILES notation.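 1) Cells in 96-well plates. 2) Compound, 48 h, 5 concentrations. 3) Linear interpolation between surrounding doses. 4) Unreached endpoint = highest concentration. GI50 = concentration required for 50% inhibition of growth.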 Calls of active or inactive are those of the source. No stated cut-off is given here; in the data, active = GI50 up to about 1.1 µM and inactive = higher. Some results are limits rather than exact numbers.

For `CC1(C)N=c2c(ncn2CCCO)=C(C(N)=O)N1`, the GI50 in [1], in test [2], in [3], in test [4], in [5] and in test [6] was > 100 µM (inactive) each time. Further, the GI50 in test [7], in test [8], in [9], in [10], in [11] and in test [12] was > 100 µM (inactive) throughout. Also, the GI50 in test [13], in test [14], in test [15], in [16], in [17] and in [18] was > 100 µM (inactive) in each case. Moreover, the GI50 in [19] was > 100 µM (inactive).

For the compound `COc1ccc(C(=O)/C=C/c2ccc(OCCCCCCCCCCOc3ccc(/C=C/C(=O)c4ccc(OC)cc4)cc3)cc2)cc1`, the GI50 in test [3], in test [4], in test [5], in [7], in [9] and in [10] was > 100 µM (inactive) each time. Further, the GI50 in [11], in [12], in [13], in [14], in [15] and in [16] was > 100 µM (inactive) in each case. For the same compound, the GI50 in [17], in test [18] and in test [19] was > 100 µM (inactive) in each case.

As to `Cc1c(Cl)cccc1NC(=O)/C(Cl)=C(\Cl)C(=O)O`, the GI50 in test [1] is 17.8 µM (inactive); in test [2], 18.7 µM (inactive); in test [3], 6.19 µM (inactive); in test [4], 20.5 µM (inactive); in test [5], 19.4 µM (inactive); in test [6], 45.1 µM (inactive). Moreover, the GI50 in [8] is 19 µM (inactive); in test [10], 17.5 µM (inactive); in [11], 19.2 µM (inactive); in [12], 19.3 µM (inactive); in test [13], 16.9 µM (inactive); in test [14], 17 µM (inactive). Moreover, the GI50 is > 10 µM (inactive) in [16], 19.5 µM (inactive) in test [18] and 17.4 µM (inactive) in test [19].

As to `COC(=O)C(Cc1ccccc1)NC(=O)Cn1ccnc1[N+](=O)[O-]` (stereo unspecified), the GI50 in test [1] is 31.7 µM (inactive); in test [2], > 100 µM (inactive); in test [3], > 100 µM (inactive); in test [4] it was 96.6 µM (inactive); in test [5], > 100 µM (inactive); in test [6], > 100 µM (inactive). The GI50 in [8] is > 10 µM (inactive); in test [10] it was > 100 µM (inactive); in test [11], > 100 µM (inactive); in [12], > 100 µM (inactive); in [13], > 100 µM (inactive); in test [14] it was > 100 µM (inactive). Moreover, the GI50 in [16], in test [18] and in test [19] was > 100 µM (inactive) each time.

For the compound `CCNC(=O)O/N=C1\CCC2[C@@H]3CC=C4C[C@@H](OC5CCCCO5)CC[C@]4(C)C3CC[C@]12C` (stereo partly specified), the GI50 in test [1] is 1.02 µM (active); in [2], 1.58 µM (inactive); in [3], 1.37 µM (inactive); in [4], 2.28 µM (inactive); in test [5] it was 2.17 µM (inactive); in test [6], 34 µM (inactive). Also, the GI50 in test [8] was 2.59 µM (inactive); in test [10], 1.45 µM (inactive); in test [11], 3.16 µM (inactive); in [12], 1.61 µM (inactive); in test [13] it was 1.47 µM (inactive); in test [14] it was 6.19 µM (inactive). Besides, the GI50 was 2.51 µM (inactive) in test [16], 2.74 µM (inactive) in test [18] and 2.12 µM (inactive) in test [19].

On to `COc1ccc(C(c2ccccc2C(=O)O)c2ccc(OC)c3ccccc23)c2ccccc12`, for which the GI50 is 13.3 µM (inactive) in test [1]; 18 µM (inactive) in test [2]; 5.2 µM (inactive) in test [3]; 15.9 µM (inactive) in [4]; 11.1 µM (inactive) in test [5]; 16.2 µM (inactive) in [6]. Besides, the GI50 in [8] is 13.5 µM (inactive); in [10] it was 10.4 µM (inactive); in test [11], 11.9 µM (inactive); in test [12] it was 4.85 µM (inactive); in test [13] it was 10.7 µM (inactive); in test [14], 12 µM (inactive). In addition, the GI50 in test [16] was 20.2 µM (inactive); in test [18], 7.48 µM (inactive); in [19] it was 10.9 µM (inactive).

As for `C=C=C(Sc1ccccc1)C(C)(C)O`, the GI50 in [1], in test [2], in test [3], in test [5], in test [6] and in test [7] was > 100 µM (inactive) each time. Besides, the GI50 in test [8], in test [10], in [11], in [12], in test [13] and in [14] was > 100 µM (inactive) throughout. In test [19], the GI50 was > 100 µM (inactive).

For the compound `O=[N+]([O-])c1ccc2oc(=N/c3ccccc3)/c(=N\c3ccccc3)[nH]c2c1`, the GI50 in [1] was 87.1 µM (inactive); in test [2] it was 88.1 µM (inactive); in test [3], > 100 µM (inactive); in [4], 75.9 µM (inactive); in [5], 47.9 µM (inactive); in [6], 59.4 µM (inactive). Besides, the GI50 is > 100 µM (inactive) in test [7]; 24.7 µM (inactive) in [10]; 87.3 µM (inactive) in [11]; > 100 µM (inactive) in test [12]; 37.9 µM (inactive) in test [13]; 39.7 µM (inactive) in [14]. The GI50 in test [15] is 54.5 µM (inactive); in [16], 70.5 µM (inactive); in [17], 65.3 µM (inactive); in test [18], 59.8 µM (inactive); in test [19], 46.5 µM (inactive).

Regarding `O=C1NC(=S)N(c2ccccc2)C1=O`, the GI50 in test [1], in test [2], in test [3], in test [4], in [5] and in [6] was > 100 µM (inactive) in each case. Also, the GI50 in test [7], in [10], in [11], in test [12], in test [13] and in test [14] was > 100 µM (inactive) in each case. The GI50 in test [16], in test [17], in test [18] and in test [19] was > 100 µM (inactive) in each case.

In the case of `CNC(=O)C1(C#N)C(c2ccccc2)C(C#N)(C(=O)NC)C1c1ccccc1` (stereo unspecified), the GI50 in test [2] was > 100 µM (inactive); in test [3] it was 24.4 µM (inactive); in test [4] it was > 100 µM (inactive); in test [5], > 100 µM (inactive); in test [6] it was > 100 µM (inactive); in test [8] it was > 100 µM (inactive). Besides, the GI50 in [9], in test [10], in test [11], in [13], in [14] and in test [15] was > 100 µM (inactive) in each case. The GI50 in test [16], in test [17], in [18] and in [19] was > 100 µM (inactive) throughout.

As to `CC(=O)c1ccc(NC(=O)C(=O)Nn2c(S)nc3ccccc3c2=O)cc1`, the GI50 in test [1], in test [2], in test [3], in test [4], in test [5] and in test [6] was > 100 µM (inactive) throughout. Also, the GI50 in test [8], in [10], in test [11], in test [12], in test [13] and in test [14] was > 100 µM (inactive) each time. Moreover, the GI50 in [16], in [18] and in [19] was > 100 µM (inactive) throughout.

As for `C=C[C@]1(C)CCC2=C(CCC3C2(C)CCC[C@]3(C)CO)C1` (stereo partly specified), the GI50 in [1] was > 100 µM (inactive); in test [2], 27.7 µM (inactive); in test [3], 34.8 µM (inactive); in test [4], 67.1 µM (inactive); in test [5], 43.6 µM (inactive); in test [6], > 100 µM (inactive). Moreover, the GI50 in test [8] was 40 µM (inactive); in test [10], 69.2 µM (inactive); in test [11], 24.1 µM (inactive); in test [12], 51.5 µM (inactive); in [13] it was > 100 µM (inactive); in test [14], > 100 µM (inactive). Further, the GI50 in [16] is 51.9 µM (inactive); in [18], 40.6 µM (inactive); in [19], 20.2 µM (inactive).
